Assay results from publication PMC8733726, “Dioctanoyl Ultrashort Tetrabasic β-Peptides Sensitize Multidrug-Resistant Gram-Negative Bacteria to Novobiocin and Rifampicin” (Frontiers in Microbiology, 2021).
Values after ≈ are worked out from the molar mass of the structure shown. Like-named read-outs stand apart in the source and are kept apart here.

Assays:
MDR E. coli = assay type: cell-based, Escherichia coli; conditions: antibiotic alone
Protocol: (§1) The adjuvant activities of dUSTBβPs were evaluated using checkerboard assay as previously described ([Berry et al., 2019]). Overnight-grown bacterial culture diluted in saline to 0.5 McFarland turbidity was successively diluted 1:50 in MHB to achieve a final concentration of 5 × 10^5 CFU/mL for inoculation. The antibiotic and adjuvant were serially diluted 2-fold along the x-axis and y-axis, respectively, resulting in varying concentrations of both agents in each well. Subsequently, the 96-well plate was incubated with equal volumes of bacterial inoculum at 37°C for 18 h. Confirmation of turbidity was done using an EMax Plus microplate reader (Molecular Devices, United States) at a wavelength of 590 nm. Wells comprising MHB alone or in the presence of bacterial cells were used as negative or positive controls, respectively. Fractional inhibitory concentration index (FICI) is determined by adding the FICs of both antibiotic and adjuvant. The FIC of the antibiotic is calculated by dividing the MIC of the antibiotic in the presence of the adjuvant by the MIC of the antibiotic alone. Similarly, the FIC of the adjuvant is calculated by dividing the MIC of the adjuvant in the presence of the antibiotic by the MIC of the adjuvant alone. FICI ≤ 0.5, 0.5 < x ≤ 4, and >4 were deemed synergistic, additive, and antagonistic, respectively ([Meletiadis et al., 2010]).

[1] = system: wild-type A. baumannii ATCC 17978; test: Time-kill assay; assay type: cell-based, Acinetobacter baumannii; conditions: 32 μg/mL novobiocin or 0.5 μg/mL rifampicin alone
Protocol: (§2) Overnight-grown bacterial culture diluted in PBS to 0.5 McFarland turbidity was successively diluted 1:50 in lysogeny broth (LB). Cell cultures in the presence of dUSTBβP 3, novobiocin, or rifampicin, or combinations of adjuvant and antibiotic were incubated at 37°C. At designated intervals, 100 μL aliquots acquired from each culture tube were serially diluted in PBS and plated on LB agar plates.

MDR A. baumannii 110193 = test: Time-kill assay; assay type: cell-based, Acinetobacter baumannii; conditions: 32 μg/mL novobiocin or 0.5 μg/mL rifampicin alone
Protocol: as §2

[2] = system: MDR clinical isolates of A. baumannii; assay type: cell-based, Acinetobacter baumannii; conditions: antibiotic alone
Protocol: as §1

MDR K. pneumoniae = assay type: cell-based, Klebsiella pneumoniae; conditions: antibiotic alone
Protocol: as §1

[3] = system: wild-type A. baumannii ATCC 17978; test: Checkerboard assay; assay type: cell-based, Acinetobacter baumannii; conditions: ATCC 17978
Excerpt: as §1, with “Overnight-grown” for “The adjuvant activities of dUSTBβPs were evaluated using checkerboard assay as previously described ([Berry et al., 2019]). Overnight-grown”, “Subsequently, the 96-well plate was incubated with equal volumes of bacterial inoculum at 37°C for 18 h.” left out, “alone.” for “alone. FICI ≤ 0.5, 0.5 < x ≤ 4, and >4 were deemed synergistic, additive, and antagonistic, respectively ([Meletiadis et al., 2010]).”

MDR E. cloacae = test: Checkerboard assay, MDR clinical isolates; assay type: cell-based, Enterobacter cloacae; conditions: antibiotic alone
Protocol: as §1

[4] = system: MDR clinical isolates of P. aeruginosa; test: Checkerboard assay, MDR clinical isolates; assay type: cell-based, Pseudomonas aeruginosa; conditions: antibiotic alone
Protocol: as §1

[5] = system: wild-type E. coli ATCC 25922; test: microbe, parasite or virus in culture; assay type: cell-based, Escherichia coli; conditions: ATCC 25922
How it was run: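 Overnight cultures were adjusted to 0.5 McFarland, then diluted to 5 × 10^5 CFU/mL in MHB. They were added to crossed 2-fold dilutions of antibiotic and adjuvant and incubated 18 h at 37°C. MICs came from OD590, and an FICI ≤ 0.5 was taken as synergy.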

[6] = system: wild-type P. aeruginosa PAO1; test: microbe, parasite or virus in culture; assay type: cell-based, Pseudomonas aeruginosa; conditions: PAO1
Excerpt: as §1, with “Overnight-grown” for “The adjuvant activities of dUSTBβPs were evaluated using checkerboard assay as previously described ([Berry et al., 2019]). Overnight-grown”, “Subsequently, the 96-well plate was incubated with equal volumes of bacterial inoculum at 37°C for 18 h.” left out, “alone.” for “alone. FICI ≤ 0.5, 0.5 < x ≤ 4, and >4 were deemed synergistic, additive, and antagonistic, respectively ([Meletiadis et al., 2010]).”

P. aeruginosa PAO1 = assay type: cell-based, Pseudomonas aeruginosa; conditions: PAO1, 18 h
Protocol: (§3) The in vitro antibacterial activities of dUSTBβPs were evaluated using microbroth dilution susceptibility test, in accordance with the Clinical and Laboratory Standards Institute (CLSI) guidelines ([Clinical and Laboratory Standards Institute, 2019]). Overnight-grown bacterial culture diluted in saline to 0.5 McFarland turbidity was successively diluted 1:50 in Mueller-Hinton broth (MHB) to achieve a final concentration of 5 × 10^5 colony forming units (CFU)/mL for inoculation. The agents were serially diluted 2-fold in MHB on a 96-well plate; mixed with bacterial inoculum of equal volumes, and incubated at 37°C for 18 h. Antibacterial activity was determined by the minimum inhibitory concentration (MIC), which is the lowest concentration of agent required for inhibition of visible bacterial growth in the form of turbidity. Confirmation of turbidity was done using an EMax Plus microplate reader (Molecular Devices, United States) at a wavelength of 590 nm. Wells comprising MHB alone or MHB inoculated with bacteria were used as negative or positive controls, respectively.

E. coli ATCC 25922 [7] = assay type: cell-based, Escherichia coli; conditions: ATCC 25922, 18 h
Protocol: as §3

A. baumannii ATCC 17978 [8] = assay type: cell-based, Acinetobacter baumannii; conditions: ATCC 17978, 18 h
Protocol: as §3

in vitro [9] = assay type: cell-based; conditions: human
Protocol: The degree of hemolysis induced by dUSTBβPs was determined by the amount of hemoglobin released from human erythrocytes upon incubation. Fresh human blood supplied by a commercial vendor was obtained from normal healthy volunteers following informed consent. The agent of interest was serially diluted in vehicle consisting of phosphate-buffered saline (PBS), saline, 5% glucose, or equivalents. The samples were incubated with gentle mixing at 37°C for 45 min and were subsequently centrifuged. The supernatant (plasma layer) was removed and centrifuged once more to completely pellet the cells. The plasma layer was diluted with Drabkin’s reagent and analyzed at a wavelength of 540 nm. Experiments were conducted in triplicates, and a calibration curve prepared by diluting blood (after addition of vehicle) was used to quantitate heme release. The vehicle or Triton X-100 were used as negative or positive controls, respectively.

in vitro [10] = assay type: cell-based; conditions: human; remark: listed apart in the source
Protocol: (§4) Cell viability assay was performed essentially as previously described ([[…] et al., 2019]). […] The cells were detached with trypsin and equal numbers of cells (8,000 cells in 50 μL) were dispersed into five rows of each column in 96-well plate; the remaining three rows of each column, designated as blanks, received 50 μL of the media without cells. After 24 h incubation, aliquots of 50 μL of dUSTBβP 3 at varying concentrations were added to each well and incubated for 48 h. […] Values from the wells without cells (blank wells) were subtracted from the corresponding sample wells and cell viability values of the treated samples relative to the vehicle controls set to 100% was determined. […] The results represent the mean ± SD of two independent experiments with five samples per experiment. […] Colistin was used as a negative control and doxorubicin, an anticancer drug, was used as a positive control.

Cell viability assay = assay type: cell-based; conditions: human
Protocol: as §4

E. coli ATCC 25922 [11] = assay type: cell-based, Escherichia coli; conditions: not told
Protocol: (§5) The ability of dUSTBβP 3 to permeabilize the OM of Acinetobacter baumannii ATCC 17978 and Escherichia coli ATCC 25922 was assessed using 1-N-phenylnaphthylamine (NPN) as previously described with minor modifications ([Yang et al., 2017]; [Akhoundsadegh et al., 2019]). Overnight grown culture was subcultured (1 in 100) in fresh LB broth and grown to a mid-logarithmic phase (OD600 = 0.4–0.6). […] NPN (10 μM final concentration) was added to a black 96-well plate containing the cell culture and incubated in 5 mM HEPES (pH 7.2) supplemented with 5 mM glucose and 5 μM carbonyl cyanide 3-chlorophenylhydrazone at room temperature for 30 min in darkness. Varying concentrations of compound were added onto the suspension, and the resulting change in NPN fluorescence was measured continuously (every 30 s) on a SpectraMax M2 microplate reader (Molecular Devices, United States) at an excitation wavelength of 350 nm and an emission wavelength of 420 nm. Cells with NPN and the OM permeabilizer PMBN served as a positive control, while cells with NPN alone served as a negative control. Three replicates were conducted, and the data were corrected for any background fluorescence.

A. baumannii ATCC 17978 [12] = assay type: cell-based, Acinetobacter baumannii; conditions: not told
Protocol: as §5

[13] = antibiotic with dUSTBβP 3 at 8 μg/mL

## CO[C@H]1/C=C/O[C@@]2(C)Oc3c(C)c(O)c4c(O)c(c(/C=N/N5CCN(C)CC5)c(O)c4c3C2=O)NC(=O)/C(C)=C\C=C\[C@H](C)[C@H](O)[C@@H](C)[C@@H](O)[C@@H](C)[C@H](OC(C)=O)[C@@H]1C [Rifampicin]
MDR E. coli; 94393
  MICantibiotic: 8 µg/mL
MDR E. coli; 94474
  MICantibiotic: 8 µg/mL
MDR E. coli; 107115
  MICantibiotic: 32 µg/mL
[1]
  Time-kill outcome: Bacteriostatic
MDR A. baumannii 110193
  Time-kill outcome: Bacteriostatic
[2]; 92247
  MICantibiotic: 2 µg/mL
[2]; 110193
  MICantibiotic: 1 µg/mL
[2]; AB027
  MICantibiotic: 1 µg/mL
[2]; AB031
  MICantibiotic: 1 µg/mL
[2]; LAC-4
  MICantibiotic: 0.5 µg/mL
MDR K. pneumoniae; 113250
  MICantibiotic: 32 µg/mL
MDR K. pneumoniae; 113254
  MICantibiotic: 8 µg/mL
MDR K. pneumoniae; 116381
  MICantibiotic: > 256 µg/mL
MDR K. pneumoniae; 116381, listed as rifampicin
  MICantibiotic: 512 µg/mL
[3]; antibiotic alone
  MICantibiotic: 2 µg/mL
[3]; [13]
  MICcombo: 0.008 µg/mL
[3]; Acinetobacter baumannii, ATCC17978, 18 h, antibiotic alone (Supplementary Table 7), read-out: MICantibiotic
  MIC: 2 µg/mL
MDR E. cloacae; 117029
  MICantibiotic: 8 µg/mL
MDR E. cloacae; 118564
  MICantibiotic: 8 µg/mL
MDR E. cloacae; 121187
  MICantibiotic: 2 µg/mL
[4]; PA259-96196
  MICantibiotic: 16 µg/mL
[4]; PA262-101856
  MICantibiotic: 512 µg/mL
[4]; PA264-104354
  MICantibiotic: 16 µg/mL
[4]; PA91433
  MICantibiotic: 16 µg/mL
[4]; PA114228
  MICantibiotic: 16 µg/mL
[5]; antibiotic alone
  MICantibiotic: 4 µg/mL
[5]; [13]
  MICcombo: 0.008 µg/mL
[5]; Escherichia coli, ATCC25922, 18 h, antibiotic alone (Supplementary Table 7), read-out: MICantibiotic
  MIC: 4 µg/mL
[6]; antibiotic alone
  MICantibiotic: 16 µg/mL
[6]; [13]
  MICcombo: 0.25 µg/mL
[6]; Pseudomonas aeruginosa, 18 h, antibiotic alone (Supplementary Table 7), read-out: MICantibiotic
  MIC: 16 µg/mL (≈ 19.4 µM)

## CCCCCCCC(=O)NC(CCCN)CC(=O)NCCCN(CCCNC(=O)CC(CCCN)NC(=O)CCCCCCC)CC(=O)NC(CCCN)CC(N)=O (stereo not drawn) [dUSTBβP 1]
P. aeruginosa PAO1
  MIC: >128 µg/mL
E. coli ATCC 25922 [7]
  MIC: >128 µg/mL
A. baumannii ATCC 17978 [8]
  MIC: >128 µg/mL
In vitro [9]
  hemolysis at 45 min, 1.5625 µM: 3.11 ± 0.07%
  hemolysis at 45 min, 3.125 µM: 3.12 ± 0.09%
  hemolysis at 45 min, 6.25 µM: 3.13%
  hemolysis at 45 min, 12.5 µM: 3.16 ± 0.04%
  hemolysis at 45 min, 25 µM: 3.12 ± 0.05%
  hemolysis at 45 min, 50 µM: 3.17 ± 0.06%
  hemolysis at 45 min, 100 µM: 3.35 ± 0.17%
  hemolysis at 45 min, 200 µM: 2.26 ± 0.19%

## CCCCCCCC(=O)NC(CCCCN)CC(=O)NCCCN(CCCNC(=O)CC(CCCCN)NC(=O)CCCCCCC)CC(=O)NC(CCCCN)CC(N)=O (stereo not drawn) [dUSTBβP 2]
P. aeruginosa PAO1
  MIC: >128 µg/mL
E. coli ATCC 25922 [7]
  MIC: >128 µg/mL
A. baumannii ATCC 17978 [8]
  MIC: >128 µg/mL
In vitro [9]
  hemolysis at 45 min, 1.5625 µM: 3.33 ± 0.12%
  hemolysis at 45 min, 3.125 µM: 3.28 ± 0.21%
  hemolysis at 45 min, 6.25 µM: 3.23 ± 0.11%
  hemolysis at 45 min, 12.5 µM: 3.22 ± 0.2%
  hemolysis at 45 min, 25 µM: 3.29 ± 0.14%
  hemolysis at 45 min, 50 µM: 3.24 ± 0.15%
  hemolysis at 45 min, 100 µM: 3.26 ± 0.1%
  hemolysis at 45 min, 200 µM: 3.21 ± 0.13%

## COc1cccc2c1C(=O)c1c(O)c3c(c(O)c1C2=O)C[C@@](O)(C(=O)CO)C[C@@H]3O[C@H]1C[C@H](N)[C@H](O)[C@H](C)O1 [doxorubicin]
In vitro [10]
  viability at 48 h, 1 µM: 16.6 ± 2.3%
Cell viability assay
  CC50 at 48 h: 32 nM

## polymyxin B nonapeptide [PMBN]
E. coli ATCC 25922 [11]
  OM permeabilization, NPN fluorescence: increased fluorescence of NPN
A. baumannii ATCC 17978 [12]
  OM permeabilization, NPN fluorescence: increased fluorescence of NPN
